{"source": "patent US12491252B2", "about": "“Substituted 3-amino-5-phenylbenzamide compounds as covalent inhibitors of enhancer zeste homolog 2 (EZH2) and proteolysis-targeting chimeric derivatives thereof (PROTACs) that induce degradation of EZH2” (Northwestern University, priority 2021, dated 2025)", "key": {"[1]": {"molecular_target": "EZH2 (Homo sapiens, UniProt Q15910)", "sequence (Q15910 whole entry)": "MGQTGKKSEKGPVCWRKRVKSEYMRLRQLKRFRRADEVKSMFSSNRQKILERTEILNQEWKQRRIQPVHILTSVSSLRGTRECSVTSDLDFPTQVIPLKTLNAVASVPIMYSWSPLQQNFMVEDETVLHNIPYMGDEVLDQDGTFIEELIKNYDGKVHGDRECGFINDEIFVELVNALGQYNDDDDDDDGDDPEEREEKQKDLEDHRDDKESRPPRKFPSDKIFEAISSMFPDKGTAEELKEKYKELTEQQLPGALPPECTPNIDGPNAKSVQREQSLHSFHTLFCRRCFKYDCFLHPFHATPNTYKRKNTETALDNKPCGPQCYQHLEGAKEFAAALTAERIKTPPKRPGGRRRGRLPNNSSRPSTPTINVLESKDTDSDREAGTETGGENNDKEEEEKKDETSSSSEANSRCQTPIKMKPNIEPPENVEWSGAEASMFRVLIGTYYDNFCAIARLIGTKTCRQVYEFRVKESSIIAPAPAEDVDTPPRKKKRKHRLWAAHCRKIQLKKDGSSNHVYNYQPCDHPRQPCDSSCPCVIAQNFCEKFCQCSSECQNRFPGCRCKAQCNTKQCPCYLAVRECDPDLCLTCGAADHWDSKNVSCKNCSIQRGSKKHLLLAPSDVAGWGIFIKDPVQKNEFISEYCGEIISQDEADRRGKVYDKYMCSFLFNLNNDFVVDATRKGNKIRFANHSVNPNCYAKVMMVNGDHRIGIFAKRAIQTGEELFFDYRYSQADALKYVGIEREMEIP", "sequence (Q15022 whole entry partner)": "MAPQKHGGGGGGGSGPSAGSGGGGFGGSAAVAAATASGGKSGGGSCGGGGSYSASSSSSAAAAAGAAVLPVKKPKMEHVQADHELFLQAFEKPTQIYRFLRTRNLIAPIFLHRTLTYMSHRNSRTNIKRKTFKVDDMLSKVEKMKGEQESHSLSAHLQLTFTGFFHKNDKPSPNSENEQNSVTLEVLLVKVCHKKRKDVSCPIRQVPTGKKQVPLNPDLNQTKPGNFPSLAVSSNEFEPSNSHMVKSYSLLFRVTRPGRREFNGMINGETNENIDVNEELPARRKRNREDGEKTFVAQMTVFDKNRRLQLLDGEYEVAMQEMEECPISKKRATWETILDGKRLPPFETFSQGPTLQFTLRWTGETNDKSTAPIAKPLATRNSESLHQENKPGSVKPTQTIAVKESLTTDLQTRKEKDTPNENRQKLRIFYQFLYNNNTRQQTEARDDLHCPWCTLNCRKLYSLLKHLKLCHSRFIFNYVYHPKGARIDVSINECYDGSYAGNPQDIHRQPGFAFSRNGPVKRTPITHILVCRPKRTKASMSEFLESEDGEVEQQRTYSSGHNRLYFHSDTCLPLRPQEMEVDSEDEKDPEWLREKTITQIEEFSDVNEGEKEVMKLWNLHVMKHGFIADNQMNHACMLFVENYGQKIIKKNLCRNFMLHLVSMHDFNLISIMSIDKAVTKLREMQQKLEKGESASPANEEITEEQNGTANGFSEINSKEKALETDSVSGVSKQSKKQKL", "sequence (O75530 whole entry partner)": "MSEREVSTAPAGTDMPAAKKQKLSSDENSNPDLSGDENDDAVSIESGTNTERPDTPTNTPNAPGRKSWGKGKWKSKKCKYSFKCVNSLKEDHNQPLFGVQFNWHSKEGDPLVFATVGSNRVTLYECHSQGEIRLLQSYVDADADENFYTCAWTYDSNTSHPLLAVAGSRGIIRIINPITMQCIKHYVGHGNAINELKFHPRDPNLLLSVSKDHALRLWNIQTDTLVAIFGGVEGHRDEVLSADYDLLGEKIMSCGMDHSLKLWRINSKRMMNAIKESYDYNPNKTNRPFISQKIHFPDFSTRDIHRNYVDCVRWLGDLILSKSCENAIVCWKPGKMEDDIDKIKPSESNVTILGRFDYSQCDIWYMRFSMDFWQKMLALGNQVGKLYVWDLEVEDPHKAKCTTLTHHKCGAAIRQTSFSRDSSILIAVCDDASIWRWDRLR", "experiment": "Western blot of EZH2 protein in C4-2B cells"}, "[2]": {"experiment": "Pharmacokinetics in mice, IP cassette dosing, plasma LC/MS/MS", "format": "in vivo, C57Bl/6 mouse", "conditions": "mouse, C57Bl/6 mice, 4 mg/kg IP, cassette format", "protocol": "FIG. 35. Pharmacokinetics of indicated compounds. Compounds were administered to C57Bl/6 mouse mice at 4 mg/kg using intraperitoneal (IP) injection in cassette format. Plasma was collected at the indicated time points and analyzed by LC/MS/MS using standard methods.\nFor assessing pharmacokinetics, compounds were administered to C57Bl/6 mouse mice at 4 mg/kg using intraperitoneal (IP) injection in cassette format. Plasma was collected at the indicated time points and analyzed by LC/MS/MS using standard methods."}, "[3]": {"conditions": "FIG. 1, increasing doses 24 or 48 hours, or 0.5 μM over a time course"}}, "data": [{"smiles": "CCN(c1cc(-c2ccc(CN3CCOCC3)cc2)cc(C(=O)NCc2c(C)cc(C)[nH]c2=O)c1C)C1CCN(C(=O)CCCCCCCCCCC(=O)NCCOc2cccc3c2C(=O)N(C2CCC(=O)NC2=O)C3=O)CC1", "note": "(stereo not shown) [Compound 2099]", "values": [{"measurement": "EZH2 protein levels (western blot)", "setting": "[1]; FIG. 28, 24 hours", "value": "reduce EZH2 protein levels"}]}, {"smiles": "CCN(c1cc(-c2ccc(CN3CCOCC3)cc2)cc(C(=O)NCc2c(C)cc(C)[nH]c2=O)c1C)C1CCN(C(=O)CCCCCCCCCCCCCCC(=O)NCCOc2cccc3c2C(=O)N(C2CCC(=O)NC2=O)C3=O)CC1", "note": "(stereo not shown) [Compound 2100]", "values": [{"measurement": "EZH2 protein levels (western blot)", "setting": "[1]; FIG. 28, 24 hours", "value": "reduce EZH2 protein levels"}]}, {"smiles": "CCN(c1cc(-c2ccc(CN3CCN(C(=O)COCC(=O)NCCCC(=O)NCCOc4cccc5c4C(=O)N(C4CCC(=O)NC4=O)C5=O)CC3)cc2)cc(C(=O)NCc2c(C)cc(C)[nH]c2=O)c1C)C1CCOCC1", "note": "(stereo not shown) [Compound 2186]", "values": [{"measurement": "EZH2 protein levels (western blot)", "setting": "[1]; FIG. 28, 24 hours", "value": "inactive at degrading EZH2"}]}, {"smiles": "CCN(c1cc(-c2ccc(N3CCN(C(=O)CCC(=O)NCCCC(=O)NCCCC(=O)NCCCOc4cccc5c4C(=O)N(C4CCC(=O)NC4=O)C5=O)CC3)cc2)cc(C(=O)NCc2c(C)cc(C)[nH]c2=O)c1C)C1CCOCC1", "note": "(stereo not shown) [Compound 2190]", "values": [{"measurement": "EZH2 protein levels (western blot)", "setting": "[1]; FIG. 28, 24 hours", "value": "reduce EZH2 protein levels"}]}, {"smiles": "CCN(c1cc(-c2ccc(CN3CCN(C(=O)CCCCCCCCCCCCCCC(=O)N[C@H](C(=O)C4C[C@H](O)C[C@H]4C(=O)NCc4ccc(-c5scnc5C)cc4)C(C)(C)C)CC3)cc2)cc(C(=O)NCc2c(C)cc(C)[nH]c2=O)c1C)C1CCOCC1", "note": "(stereo partly shown) [Compound 2305]", "values": [{"measurement": "EZH2 protein levels (western blot)", "setting": "[1]; [3]", "value": "decreases EZH2 protein levels"}, {"measurement": "Rescue of EZH2 protein degradation by proteasome inhibitor MG132", "setting": "[1]; FIG. 2, 5 μM compound with or without MG132", "value": "can be rescued by proteasome inhibitor MG132"}, {"measurement": "Degrading EZH2 protein", "setting": "[1]; FIG. 5, 24 or 48 hours", "value": "effective in degrading EZH2 protein"}, {"measurement": "Restoration of EZH2 by proteasome inhibitor MG132", "setting": "[1]; FIG. 7, 24 hours, 5 μM or 10 μM MG132", "value": "restored EZH2"}, {"measurement": "EZH2 protein levels (western blot)", "setting": "[1]; FIG. 28, 24 hours", "value": "significant reduction in EZH2"}, {"measurement": "half-life", "setting": "[2]", "value": "3.5 to 6", "unit": "h"}]}, {"smiles": "CCN(c1cc(-c2ccc(CN3CCN(C(=O)CCCCCCCCCCCCCCC(=O)N[C@H](C(=O)N4C[C@@H](O)C[C@H]4C(=O)NCc4ccc(-c5scnc5C)cc4)C(C)(C)C)CC3)cc2)cc(C(=O)NCc2c(C)cc(C)[nH]c2=O)c1C)C1CCOCC1", "note": "[Compound 3571]", "values": [{"measurement": "EZH2 protein levels (western blot)", "setting": "[1]; [3]", "value": "inactive"}, {"measurement": "Degrading EZH2 protein, versus 2305", "setting": "[1]; FIG. 12, 24 hours", "value": "less effective than 2305"}]}, {"smiles": "CCN(c1cc(-c2ccc(CN3CCN(C(=O)CCCCCCCCC(=O)N[C@H](C(=O)N4C[C@H](O)C[C@H]4C(=O)NCc4ccc(-c5scnc5C)cc4)C(C)(C)C)CC3)cc2)cc(C(=O)NCc2c(C)cc(C)[nH]c2=O)c1C)C1CCOCC1", "note": "[Compound 6271]", "values": [{"measurement": "Restoration of EZH2 by proteasome inhibitor MG132", "setting": "[1]; FIG. 11, 24 hours, 10 μM MG132", "value": "restored EZH2"}]}, {"smiles": "CCN(c1cc(-c2ccc(CN3CCN(C(=O)CCCCCCCCCCCC(=O)N[C@H](C(=O)N4C[C@H](O)C[C@H]4C(=O)NCc4ccc(-c5scnc5C)cc4)C(C)(C)C)CC3)cc2)cc(C(=O)NCc2c(C)cc(C)[nH]c2=O)c1C)C1CCOCC1", "note": "[Compound 6273]", "values": [{"measurement": "Restoration of EZH2 by proteasome inhibitor MG132", "setting": "[1]; FIG. 11, 24 hours, 10 μM MG132", "value": "restored EZH2"}]}, {"smiles": "CCN(c1cc(-c2ccc(CN3CCN(C(=O)CCCCCCCCCCC(=O)N[C@H](C(=O)N4C[C@@H](O)C[C@H]4C(=O)NCc4ccc(-c5scnc5C)cc4)C(C)(C)C)CC3)cc2)cc(C(=O)NCc2c(C)cc(C)[nH]c2=O)c1C)C1CCOCC1", "note": "[Compound 6285]", "values": [{"measurement": "Degradation of EZH2", "setting": "[1]; FIG. 14, 10 μM for 6 days", "value": "no ability to degrade EZH2"}]}, {"smiles": "Cc1cc(C)c(CNC(=O)c2cc(-c3ccc(N4CCN(CCNC(=O)CC56CC7CC(CC(C7)C5)C6)CC4)nc3)cc3c2cnn3C(C)C)c(=O)[nH]1", "note": "[MS1943, reference compound]", "values": [{"measurement": "Ability to degrade EZH2 at 0.5 μM", "setting": "[1]; FIG. 28, 24 hours, 0.5 μM", "value": "no ability to degrade EZH2"}]}]}
